The text below walks through data of patent publication US20190030053A1, “COMPOSITION FOR INCREASING EXPRESSION OF PGC-1alpha” (BENEBIOSIS CO., LTD., priority 2016, published 2019).

For one test, the system named is telomerase. Nature of the test: Telomerase activity (TRAP) in vivo, aorta of arteriosclerosis models (ApoE−/−). Particulars: ApoE−/− mice, high-fat diet, oral 0.1 mg/kg/day, 6 weeks. The arrangement: species or system mouse. The source says:
In order to investigate the aging-related chronic disease preventing effect through the control of telomerase functions and DNA damage by the treatment with SL (3′-SL & 6′-SL) compositions in arteriosclerosis models, two types of 24-week-old male model mice (PGC-1α^+/+ApoE^−/−) were randomly grouped into three different dietary treatment groups (8 animals per group) below, and the diets were maintained for 6 weeks (a total of 24 animals): • Control group: Arteriosclerosis models fed with a high-fat diet (Rodent Diet with 60 kcal % fat) (8 animals) • 3′-SL administration group: Arteriosclerosis models treated with 3′-sialyllactose (3′-SL, Sigma) (oral administration of 0.1 mg per kg of mouse weight per day) in addition to the high-fat diet group (8 animals) • 6′-SL administration group: Arteriosclerosis models treated with 6′-sialyllactose (6′-SL, Sigma) (oral administration of 0.1 mg per kg of mouse weight per day) in addition to the high-fat diet group (8 animals)
In FIG. 20, the telomerase activity was measured using TRAP protocol (Wright et al., 1995). […] The fluorescence of the thus obtained TRAP product was measured using a fluorescent plate reader to quantify telomerase activity. Relative telomerase activity was normalized by the ratio of native […] to sulforhodamine (internal control standard), expressed as a percentage. […]

The subject of a further test is high-fat diet mice. Briefly: Subcutaneous fat changes of high-fat diet mice by subcutaneous injection. Type of test: in vivo, mouse. Particulars: 0.5 ml of 100 mM, subcutaneous injection day 0 and day 4; observed day 4 and 7. The protocol: 4-Week-old C56BL/6 mice were purchased from Dooyeul Biotech (Korea). Water was freely accessible, and a commercially available pellet feed (Dooyeul Biotech, Korea) was given for one week. A high-fact (60% fat) diet purchased from Research Diets (New Brunswick, U.S.A) was supplied for 28 days to construct fat-accumulated mice.
0.5 ml of 100 mM 3′-siallylactose or 6′-siallylactose dissolved in a phosphate buffer was subcutaneously injected two times (day 0 and day 4) into four to five sites of the dorsal region of the mouse having fat accumulation induced by a high-fat diet. On day 4 and 7, the skin was observed by the naked eye and dermoscopy. A phosphate buffer was used as a control group (CTL).

In the next test the test system is 3T3-L1 adipocytes. Briefly: Oil-Red O staining of intracellular fat in differentiated adipocytes. It is filed as cell-based. Particulars: differentiated 3T3-L1 adipocytes, 0.01-10 mM, 10 days. The protocol:
3T3-L1 adipocytes were purchased from Korean Cell Line Bank. For the culture and maintenance of 3T3-L1 adipocytes, the cells were subcultured in Dulbecco's modified Eagle's medium (DMEM, Welgene, Korea) supplemented with 10% bovin calf serum (FCS, Welgene, Korea) in a 5% CO2 incubator at 37° C. 3T3-L1 adipocytes were divided into six groups as follows: NT; Normal differentiated cell group (control group), sialyllactose test group; 1, 10, 100, 1000, and 10000 μM test groups treated with sialyllactose (SL, Sigma-Aldrich, USA). For cell differentiation, the cells were dispensed in 6-well plates at a density of 2×10^5 cells per well, and grown to 100% confluency. […]
After differentiation in 6-well plates, 3T3-L1 adipocytes treated with […] or 6’-sialyllactose were washed two times with PBS, and then 2 ml of 10% formalin (Sigma-Aldrich, USA) was added thereto to fix the adipocytes at room temperature for 10 minutes. […] Thereafter, 1 ml of 100% isopropanol (Sigma-Aldrich, USA) was added to effuse stained adipocytes, and then the amount of accumulated fat was measured using absorbance at 500 nm.

`CC(=O)N[C@H]1[C@H]([C@H](O)[C@H](O)CO)O[C@@](OC[C@H]2O[C@@H](O[C@H]3[C@H](O)[C@@H](O)[C@H](O)O[C@@H]3CO)[C@H](O)[C@@H](O)[C@H]2O)(C(=O)O)C[C@@H]1O` [6′-SL, α-NeuNAc-(2→6)-β-D-Gal-(1→4)-D-Glc]: the “telomerase activity in aorta sample (in vivo)” value with telomerase is on record as “increased telomerase activity”. In the test on high-fat diet mice, the “subcutaneous fat (naked eye and dermoscopy)” value is on record as “greatly reduced subcutaneous fat”. Also, the “intracellular fat (Oil Red O)” value was “greatly reduced” in the test with 3T3-L1 adipocytes (listed as 6′-siallylactose) and “significantly reduced intracellular fat” in the test on 3T3-L1 adipocytes (listed as 6′-sialyllactose).

For `CC(=O)N[C@H]1[C@H]([C@H](O)[C@H](O)CO)O[C@@](O[C@H]2[C@@H](O)[C@@H](CO)O[C@@H](O[C@H]3[C@H](O)[C@@H](O)C(O)O[C@@H]3CO)[C@@H]2O)(C(=O)O)C[C@@H]1O` (stereo partly drawn) [3′-SL, α-NeuNAc-(2→3)-β-D-Gal-(1→4)-D-Glc], the “telomerase activity in aorta sample (in vivo)” value in the test on telomerase is “increased telomerase activity”.
